Data as given in article PMC7369893, “Antimicrobial Peptides Display Strong Synergy with Vancomycin Against Vancomycin-Resistant E. faecium, S. aureus, and Wild-Type E. coli” (International Journal of Molecular Sciences, 2020).
Converted amounts (≈) assume the structure as drawn. Non-standard residues stand in square brackets, D forms with d. Residues, ends and D or L forms follow the SMILES beside them. Dip = N[C@H](C(=O)O)C(c1ccccc1)c1ccccc1

How the values were obtained:
[1] = test system: E. faecium BCRC 15B0132 (VRE); experiment: microbe, parasite or virus in culture; format: cell-based, Enterococcus faecium; details: BCRC 15, 16 h
Procedure: (§1) The antibacterial activities of peptides were determined by the standard broth microdilution method according to the guidelines of the Clinical and Laboratory Standards Institute (CLSI). Briefly, E. coli ATCC 25922 were incubated in MHB, and E. faecium BCRC 15B0132, VISA and VRSA strains were incubated in TSB overnight at 37 °C. The cell cultures were regrown to the mid-log phase and subsequently diluted to a final concentration of 5 × 10^5 CFU/mL. The 1 µL peptides or antibiotic were loaded into each well at the final concentration of 64, 32, 16, 8, 4, 2, 1, and 0.5 µg/mL, then loaded 99 µL diluted microbes into each well of polypropylene 96-well plate. After 16 h of incubation at 37 °C, the turbidity at OD600 was measured by the microplate reader. The minimal inhibitory concentration (MIC) value was defined as the lowest concentration of peptide or antibiotic, which inhibited the 90% visible growth of bacteria. All experiments were repeated three times independently.

[2] = test system: Vancomycin-intermediate S. aureus 01 (VISA01); experiment: microbe, parasite or virus in culture; format: cell-based, Staphylococcus aureus; details: Vancomycin-intermediate 01 (VISA01, 16 h)
Procedure: as §1

[3] = test system: Vancomycin-intermediate S. aureus 02 (VISA02); experiment: microbe, parasite or virus in culture; format: cell-based, Staphylococcus aureus; details: Vancomycin-intermediate 02 (VISA02, 16 h)
Procedure: as §1

[4] = test system: Vancomycin-intermediate S. aureus 03 (VISA03); experiment: microbe, parasite or virus in culture; format: cell-based, Staphylococcus aureus; details: Vancomycin-intermediate 03 (VISA03, 16 h)
Procedure: as §1

[5] = test system: Vancomycin-resistant S. aureus 01 (VRSA01); experiment: microbe, parasite or virus in culture; format: cell-based, Staphylococcus aureus; details: VRSA01 (induced from VISA01 by serial passage); CLSI broth microdilution, TSB, 5 × 10^5 CFU/mL, 16 h, 37 °C; triplicate
Procedure: (§2) For the purpose of inducing vancomycin-resistant Staphylococcus aureus (VRSA), the VISA01, VISA02, and VISA03 bacteria were incubated overnight in culture medium, and transferring 50 µL of bacteria to 5 mL of fresh medium containing 2 μg/mL of vancomycin then incubated overnight. The bacteria were transferred to new tube with doubling vancomycin concentration and then incubated overnight again. The concentration of vancomycin during serial passage was 2, 4, 8, 16, and 32 µg/mL. The procedure was repeated until meeting the final concentration of 32 µg/mL. After serial passage, the cell resistance was confirmed by using an MIC assay.
as §1

[6] = test system: Vancomycin-resistant S. aureus 02 (VRSA02); experiment: microbe, parasite or virus in culture; format: cell-based, Staphylococcus aureus; details: VRSA02 (induced from VISA02 by serial passage); CLSI broth microdilution, TSB, 5 × 10^5 CFU/mL, 16 h, 37 °C; triplicate
Procedure: as §2, §1

[7] = test system: Vancomycin-resistant S. aureus 03 (VRSA03); experiment: microbe, parasite or virus in culture; format: cell-based, Staphylococcus aureus; details: VRSA03 (induced from VISA03 by serial passage); CLSI broth microdilution, TSB, 5 × 10^5 CFU/mL, 16 h, 37 °C; triplicate
Procedure: as §2, §1

E. coli ATCC 25922 [8] = experiment: microbe, parasite or virus in culture; format: cell-based, Escherichia coli; details: ATCC 25922, 16 h
Procedure: as §1

[9] = test system: VRE, VISA, VRSA and E. coli strains; experiment: Checkerboard assay, summary statements of the text over the strain panel; format: cell-based; details: peptide at ¼ ×MIC combined with vancomycin, all strains studied
Procedure: The synergistic effects of peptides in combination with vancomycin were investigated by checkerboard assay with slight modification. The peptides were fixed concentration at ¼ × MIC, then in combination with antibiotics at various concentrations in each well of 96-well plate. Then the peptide/antibiotic were mixed with inoculum (5 × 10^5 CFU/mL) and incubated at 37 °C for 16 h. The fractional inhibitory concentration (FIC) index was calculated as follows: FIC index = (MIC of drug A in combination/MIC of drug A alone) + (MIC of drug B in combination/MIC of drug B alone). An FIC index of ≤ 0.5 was defined as synergy, indifference was defined as an FIC index of 0.5 < FICI ≤ 4, antagonism was defined as an FIC index of > 4. The experiments were performed in triplicate.

[10] = test system: E. faecium BCRC 15B0132 (VRE); experiment: Time killing assay; format: cell-based, Enterococcus faecium; details: 5 × 10^5 CFU/mL, 1 × MIC, 0.5-24 h, 37 °C, triplicate
Procedure: (§3) The bactericidal activities of vancomycin, P-113, Phe-P-113, Bip-P-113, Dip-P-113, and Nal-P-113 against E. faecium BCRC 15B0132 (VRE) and E. coli ATCC 25922 were assessed by the time-kill analysis. The cells were grown overnight in TSB or MHB at 37 °C with shaking, and then fresh TSB or MHB was inoculated for growth to mid-logarithmic phase. Bacteria (5 × 10^5 CFU/mL) were treated with 1 × MIC vancomycin, P-113, Phe-P-113, Bip-P-113, Dip-P-113, and Nal-P-113 for 0.5, 1, 2, 4, 6, 10, and 24 h at 37 °C. Bacteria without peptides and vancomycin served as a control. Aliquots were removed at each time points, and 10-fold serial dilutions of the aliquot were plated onto the Müller-Hinton agar. The numbers of CFU were counted after 24 h of incubation at 37 °C. The detection limit for the colony counts was 2log10 CFU/mL.

E. faecium BCRC 15B0132 = experiment: Uptake of BODIPY-labeled vancomycin, confocal laser scanning microscopy; format: cell-based, Enterococcus faecium; details: VRE 10^7 CFU/mL, 0.5 ×MIC peptide 30 min at 37 °C, then BODIPY-labeled vancomycin (2 μg/mL) 30 min; mean fluorescence intensity
Procedure: (§4) The fluorescence experiments were performed with slight modification as described previously. Briefly, the bacteria (10^7 CFU/mL) were incubated with 0.5 ×MIC antimicrobial peptides for 30 min and then treated with BODIPY-labeled vancomycin (2 μg/mL) for 30 min. Samples treated with BODIPY-labeled vancomycin only served as a control. After incubation, bacteria were centrifuged at 8000× g for 5 min, washed three times with PBS to remove unbinding fluorescence dye, and resuspended by PBS. The resuspended solution were loaded on the glass slides (Polysine™, Thermo Fisher Scientific, Waltham, MA, USA) and visualized under confocal laser scanning microscope (LSM 510 META, Carl Zeiss, Jena, Thüringen, Germany) equipped with a 64× oil objective lens (Carl Zeiss, Jena, Thüringen, Germany).

E. coli ATCC 25922 [11] = experiment: as above; format: cell-based, Escherichia coli; details: E. coli 10^7 CFU/mL, 0.5 ×MIC peptide 30 min at 37 °C, then BODIPY-labeled vancomycin (2 μg/mL) 30 min; mean fluorescence intensity
Procedure: as §4

[12] = POPC:POPG (3:1, mol/mol) and POPC:LPS (4:1, mol/mol) LUVs; cited from earlier work
Source text: Dathe and coauthors used POPC:LPS as model prokaryotic membranes to study peptide activity against E. coli and the role of LPS [20]. Previously, we have evaluated the membrane-permeability of P-113 and its derivatives by measuring the release of calcein from various phospholipid vesicles such as POPC:POPG (3:1, mol/mol) LUVs (mimic the anionic bacterial membrane) and POPC:LPS (4:1, mol/mol) LUVs (served as surrogates of Gram-negative bacterial membranes that contain LPS). […] Nal- ...

human fibroblasts (HFW) = details: peptide >25 µg/mL; cited from earlier work
[13] = test system: VRE, VISA, VRSA, and E. coli strains; experiment: microbe, parasite or virus in culture; format: cell-based; details: 16 h
Procedure: as §1

E. coli ATCC 25922 [14] = experiment: Time killing assay; format: cell-based, Escherichia coli; details: E. coli ATCC 25922, 5 × 10^5 CFU/mL, 1 × MIC, 0.5-24 h, 37 °C; triplicate
Procedure: as §3

| SMILES | MIC [1] | MIC [2] | MIC [3] | MIC [4] | MIC [5] | MIC [6] | MIC [7] | MIC (E. coli ATCC 25922 [8]) | synergy with vancomycin (interpretation of FICI) [9] | killing kinetics [10] | entry of BODIPY-labeled vancomycin into the bacteria (rank order) (E. faecium BCRC 15B0132) | entry of BODIPY-labeled vancomycin into the bacteria (rank order) (E. coli ATCC 25922 [11]) | calcein leakage from LUVs [12] | cell death (MTT) (human fibroblasts (HFW)) | MICs against these bacterial strains [13] | killing kinetics (E. coli ATCC 25922 [14]) |
| --- | --- | --- | --- | --- | --- | --- | --- | --- | --- | --- | --- | --- | --- | --- | --- | --- |
| CC(=O)N[C@@H](C)C(=O)N[C@@H](CCCCN)C(=O)N[C@@H](CCCNC(=N)N)C(=O)N[C@H](C(=O)N[C@H](C(=O)NCC(=O)N[C@@H](Cc1ccc(O)cc1)C(=O)N[C@@H](CCCCN)C(=O)N[C@@H](CCCNC(=N)N)C(=O)N[C@@H](CCCCN)C(=O)N[C@@H](Cc1ccccc1)C(=O)N[C@H](C(N)=O)C(c1ccccc1)c1ccccc1)C(c1ccccc1)c1ccccc1)C(c1ccccc1)c1ccccc1 [Dip-P-113] (Ac-AKR[Dip][Dip]GYKRKF[Dip]-NH2) | 4 µg/mL (≈ 2.15 µM) | 16 µg/mL (≈ 8.58 µM) | 16 µg/mL (≈ 8.58 µM) | 16 µg/mL (≈ 8.58 µM) | 32 µg/mL (≈ 17.2 µM) | 32 µg/mL (≈ 17.2 µM) | 32 µg/mL (≈ 17.2 µM) | 64 µg/mL (≈ 34.3 µM) | synergistic effects against VRE, VRSA 02, and E. coli | rapid bactericidal activity | Bip-P-113 = Nal-P-113 > Dip-P-113 > Phe-P-113 = P-113 | Bip-P-113 > Nal-P-113 > Dip-P-113 > Phe-P-113 = P-113 | dose-dependent calcein leakage | 10–20% |  |  |
| CC(=O)N[C@@H](C)C(=O)N[C@@H](CCCCN)C(=O)N[C@@H](CCCNC(=N)N)C(=O)N[C@@H](Cc1c[nH]cn1)C(=O)N[C@@H](Cc1c[nH]cn1)C(=O)NCC(=O)N[C@@H](Cc1ccc(O)cc1)C(=O)N[C@@H](CCCCN)C(=O)N[C@@H](CCCNC(=N)N)C(=O)N[C@@H](CCCCN)C(=O)N[C@@H](Cc1ccccc1)C(=O)N[C@@H](Cc1c[nH]cn1)C(N)=O [P-113] (Ac-AKRHHGYKRKFH-NH2) | >64 µg/mL | >64 µg/mL | >64 µg/mL | >64 µg/mL | >64 µg/mL | >64 µg/mL | >64 µg/mL | >64 µg/mL | no synergy | slower or limited killing kinetics | Bip-P-113 = Nal-P-113 > Dip-P-113 > Phe-P-113 = P-113 | Bip-P-113 > Nal-P-113 > Dip-P-113 > Phe-P-113 = P-113 | only weak abilities in causing calcein leakage |  | > 64 µg/mL | limited bactericidal activity |
